Results from PubChem BioAssay AID365 (MTDP, 2006).
The source made the active and inactive calls. How the calls were made is not given here.

Target: Ribonuclease HI (Escherichia coli (strain K12)) (UniProt P0A7Y4)
Assay: inhibition of bacterial ribonuclease H activity – biochemical, FRET RNA/DNA duplex cleavage, dose response (AID 365)
Conditions: E. coli RNase H, FRET RNA/DNA cleavage fluorescence

Sequence of Ribonuclease HI (Escherichia coli (strain K12)) (P0A7Y4 whole entry, looked up): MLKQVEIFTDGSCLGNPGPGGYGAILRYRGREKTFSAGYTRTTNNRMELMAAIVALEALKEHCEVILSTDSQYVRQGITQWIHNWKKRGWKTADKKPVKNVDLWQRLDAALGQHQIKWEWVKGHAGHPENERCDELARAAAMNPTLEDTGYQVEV

Structure (SMILES)	IC50
COC(=O)c1c(N)sc(C(=O)Nc2ccc(OC)cc2)c1C	inactive
Cc1sc2nc(-c3ccc([N+](=O)[O-])cc3)[nH]c(=O)c2c1C	1.6 µM
O=C1C=C/C(=N\S(=O)(=O)c2cc(Cl)ccc2Cl)C=C1Cl	7 µM
O=C1C(Cl)=C(Nc2ccc(S(=O)(=O)Nc3ccccn3)cc2)C(=O)c2ccccc21	80 µM
O=C1Nc2ccc(I)cc2C1(O)N1CCOCC1 (stereo not given)	0.8 µM
O=C1C(Cl)=CC(=NS(=O)(=O)c2ccccc2)C=C1Cl	inactive

The next lines start with the values.

IC50	Structure (SMILES)
5.2 µM	CC1=c2c(oc3cc(O)c(Nc4c(C)cc(O)cc4O)c(C)c23)=CC(=O)C1=Nc1c(C)cc(O)cc1O
inactive	O=C(N/N=C/c1ccccc1Cl)c1cc(O)c(O)c(O)c1
inactive	Cc1cc(=O)c2c(O)c3c(O)cc(O)c4c5c(O)cc(O)c6c(O)c7c(=O)cc(C)c8c1c2c(c34)c(c65)c78
8 µM	O=C1/C(=C/c2ccc(O)c(O)c2)SC(=S)N1c1ccc(O)cc1
